Measured values as given in patent US4411832A, “Polysaccharide matrices comprising macromolecular spacer arms for use as adsorbents in affinity chromatography techniques” (priority 1981, dated 1983).
pKd: −log10 of the molar value.

Target: T1, estradiol receptor (Bos taurus, UniProt P49884)
T1 construct: incubated in suspension with varying concentrations of [^3 H]estradiol and with the uterine supernatant; from tissue; host or cells: uterus (uterine supernatant)
T1 sequence (P49884 1-596): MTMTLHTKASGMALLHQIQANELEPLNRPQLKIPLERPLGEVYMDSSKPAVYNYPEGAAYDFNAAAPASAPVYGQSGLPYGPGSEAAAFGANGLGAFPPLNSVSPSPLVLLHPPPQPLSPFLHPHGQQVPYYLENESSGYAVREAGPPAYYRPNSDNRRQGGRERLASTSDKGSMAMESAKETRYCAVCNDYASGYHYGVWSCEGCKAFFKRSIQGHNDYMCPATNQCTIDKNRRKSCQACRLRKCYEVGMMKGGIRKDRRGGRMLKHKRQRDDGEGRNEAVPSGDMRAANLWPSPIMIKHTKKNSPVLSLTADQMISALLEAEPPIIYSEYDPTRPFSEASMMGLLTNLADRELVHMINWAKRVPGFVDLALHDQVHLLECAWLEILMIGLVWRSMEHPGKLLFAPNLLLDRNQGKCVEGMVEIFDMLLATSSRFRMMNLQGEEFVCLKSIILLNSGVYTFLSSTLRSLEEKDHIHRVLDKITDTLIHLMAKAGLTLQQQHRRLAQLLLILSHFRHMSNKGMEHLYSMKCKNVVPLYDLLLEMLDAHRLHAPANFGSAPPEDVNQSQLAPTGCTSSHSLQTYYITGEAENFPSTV
Test: Affinity of the estradiol receptor for agarose-estradiol derivatives (incubation with [3H]estradiol and uterine supernatant, reciprocal plots)
Type: binding
Settings: free ligand, uterine supernatant, estimated, read-out: dissociation constant
Method: Experiments were performed to estimate the affinity of the estradiol receptor for the macromolecular agarose-estradiol derivatives to compare the relative affinities of the various derivatives. The adsorbents are incubated in suspension with varying concentrations of [^3 H]estradiol and with the uterine supernatant, and the data were plotted in reciprocal plots to estimate the comparative affinities toward the estradiol receptor.

`C[C@]12CC[C@@H]3c4ccc(O)cc4CC[C@H]3[C@@H]1CC[C@@H]2OC(=O)CCC(=O)O` [17β-estradiol 17-hemisuccinate] showed a pKd of ~6.15.
